Results: article PMC9977398, “Next-generation membrane-active glycopeptide antibiotics that also inhibit bacterial cell division” (Chemical Science, 2023)

Key:
MRSA ATCC33591 = test: Neutropenic murine thigh infection model; type: in vivo, Balb/c mice; conditions: for bacterial load in thigh: 12 mg kg^−1 i.p. at 1 h and 13 h post-infection, 24 h, untreated 8 log CFU g^−1
Experimental: The in vitro activity, low toxicity, and stability in plasma and liver homogenate, supported the potential of VanQAmC10 as a candidate for the treatment of bacterial infections. The efficacy of VanQAmC10 (8) against MRSA was tested in a neutropenic mouse thigh infection model. Infection was established by injecting them with 5 × 10^5 CFU of MRSA in the thigh. 1 h and 13 h post-infection, mice were treated with 12 mg kg^−1 of vancomycin and VanQAmC10 administered intraperitoneally (Fig. 6B). The mice were sacrificed 24 h post-infection. […] In the untreated group, the bacterial load increased to 8 log CFU g^−1. […] However, treatment with VanQAmC10 reduced the bacterial load to 3.3 log CFU g^−1, which is a 1.5 log CFU g^−1 lower bacterial load than observed against vancomycin. […]
bacterial concentration was adjusted to ~ […] based on OD600. The process was repeated for 27 passages. The fold of MIC increased for test compounds were plotted against […]
Activity in blood plasma and liver homogenate
To examine the susceptibility of VanQAmC10 to serum proteases, the antibacterial activities was tested in the presence of 50% of plasma and liver homogenate. Briefly, 250 μL of VanQAmC10 was added into 250 μL of fresh human plasma and incubated at 37 °C. An aliquot of the samples 3 h and 24h post-incubation was diluted in 0.9% saline and the antibacterial activity (MIC) were determined against MRSA and VRE by following the same protocol as described above for the antibacterial assay.
The toxicity of the lead compound VanQAmC10 was tested in mice through various modes of administration and reported as the LD50 (LD = lethal dose). The LD50 is the dosage that kills 50% of the test population of mice. […]
The doses for administration, were given modified OECD guidelines. LD50 was determined using Spearman-Karber method. […]
Groups of four 6 to 8 week-old Balb/c specific-pathogen-free female mice were used (weight ~22 g) for the experiment. […] The bacterial titer was expressed as Log CFU/g of thigh weight and plotted in GraphPad Prism software. […]

VRSA = test: Time-kill kinetics against VRSA; type: cell-based, S. aureus
wild-type E. coli = test: Light microscopy of wild-type E. coli (lysis); type: cell-based; conditions: VanQAmC10 25 μM, vancomycin 34 μM (Fig. 5A)
Experimental: Over 240 minutes, E. coli treated with VanQAmC10 (at 25 μM), gradually grow bulky before finally lysing (ESI Video ^†). It punctured the cell, causing the cytoplasm to leak out as extrusions on the surface of the bacteria after which the cells flattened and disintegrated.
Fig. 5 Examination of E. coli cells treated with vancomycin, cephalexin and VanQAmC10 to study the effect on bacterial membrane integrity and cell division. (A) Light microscopy of wild-type E. coli upon treatment with vancomycin (34 μM), and VanQAmC10 (25 μM); (B) light and fluorescence microscopy in GFP-FtsZ expressing E. coli to assess morphological changes and localization of FtsZ post-treatment with VanQAmC10 (15 μM) for 40 min; (C) delocalization of GFP-FtsI in GFP-FtsI expressing E. coli through fluorescence microscopy and morphological changes through light microscopy upon treatment with vancomycin (34 μM), cephalexin (22 μM) and VanQAmC10 (10 μM); (D) light microscopy to assess morphological changes in E. coli MG1655 ΔamiAC mutant, when untreated and treated with vancomycin (3 μM) and VanQAmC10 (2 μM). Black arrows indicate morphological aberrations.

[1] = system: VRSA 12 (vancomycin-resistant S. aureus); design: method as in PMID 32195571; conditions: previously reported; cited from earlier work

Q: With `CN[C@H](CC(C)C)C(=O)N[C@H]1C(=O)N[C@@H](CC(N)=O)C(=O)N[C@H]2C(=O)N[C@H]3C(=O)N[C@H](C(=O)N[C@H](C(=O)O)c4cc(O)cc(O)c4-c4cc3ccc4O)[C@H](O)c3ccc(c(Cl)c3)Oc3cc2cc(c3O[C@@H]2O[C@H](CO)[C@@H](O)[C@H](O)[C@H]2O[C@H]2C[C@](C)(N)[C@H](O)[C@H](C)O2)Oc2ccc(cc2Cl)[C@H]1O` [Vancomycin, reference compound] as the compound, how does the “bacterial load in thigh” value (MRSA ATCC33591) read?
A: The value was 4.8 log CFU g^−1.

Q: What about the “effect on growth of VRSA” value (VRSA; 20 μM (sub-MIC)) of the same compound?
A: Its value is “initial growth inhibitory effect, followed by resumption of bacterial growth”.

Q: What about the “effect on E. coli cells (microscopy)” value (wild-type E. coli) of the same compound?
A: Its value is “did not affect the cells”.

Q: For `CCCCCCCCCCNC(=O)C[N+](C)(C)CCCNC(=O)C1NC(=O)C2NC(=O)C(NC(=O)C3NC(=O)C(CC(N)=O)NC(=O)C(NC(=O)C(CC(C)C)NC)C(O)c4ccc(c(Cl)c4)Oc4cc3cc(c4OC3OC(CO)C(O)C(O)C3OC3CC(C)(N)C(O)C(C)O3)Oc3ccc(cc3Cl)C2O)c2ccc(O)c(c2)-c2c(O)cc(O)cc21` (stereo not shown) [VanQAmC10 (8)], which “bacterial load in thigh” value (MRSA ATCC33591) is on record?
A: The value was 3.3 log CFU g^−1.

Q: What about the “lower bacterial load than observed against vancomycin” value (MRSA ATCC33591; 12 mg kg^−1 i.p. twice) of the same compound?
A: The value was 1.5 log CFU g^−1.

Q: And the “Minimum inhibitory concentration, VRSA 12” value [1]?
A: The value was 1.6 µM.

Q: What about the “increase in bacterial titer between 6 h and 24 h” value (VRSA; VRSA, 2×MIC, after initial reduction) of the same compound?
A: Its value is 1 log CFU mL^−1.

Q: What about the “time to complete eradication” value (VRSA; VRSA, 6×MIC) of the same compound?
A: Its value is 24 h.

Q: What about the “reduction of bacterial titer” value (VRSA; VRSA, at MIC, 24 h) of the same compound?
A: Its value is 1.9 log CFU mL^−1.

Q: What about the “effect on E. coli cells (microscopy)” value (wild-type E. coli) of the same compound?
A: Its value is “completely lysed the cells”.
